# Experimental data as given in paper PMC4935942, “Efficient Inhibition of Hepatitis B Virus Infection by a preS1-binding Peptide” (Scientific Reports, 2016).
# Read-outs that look alike come from different tables or passages of the source. Where no end group is shown, it is not given here.
# Experiments:
# preS1/2-48^myr = experiment: preS1/2-48^myr-FITC binding to immobilized N-biotinylated B10 monomer/concatemers; design: species or system HBV (genotype D); conditions: N-biotinylated peptide 2 μg/well on streptavidin-coated wells; 1 h at room temperature; fluorescence
# Experimental: (§1) The N-biotinylated B10 monomer or concatemers (Fig. 1A) (2 μg/well) was applied into the streptavidin-coated wells and incubated for 45 minutes at room temperature. Wells were washed with PBST (0.05% Tween 20 in PBS). […] Excess preS1/2-48^myr-FITC peptides were removed with PBST. Fluorescence intensity was then measured using a VICTOR X multilabel reader (Perkin Elmer, Waltham, MA). In virus capture assays, 1 × 10^6 viruses from pooled HBV positive serum (Ruijin Hospital, Shanghai) were applied per well. After incubation at 4 °C for 4 hours, wells were washed and 100 μl of horseradish peroxidase-labeled HBsAg antibody (Kehua, Shanghai, China) was added and incubated for 1 hour at room temperature. The absorbance at 450 nm was measured.
# HBV particles = experiment: HBV virus capture assay; assay type: binding, Hepatitis B virus; conditions: 1 × 10^6 viruses per well from pooled HBV positive serum; 4 °C for 4 h; HRP-labeled HBsAg antibody, absorbance at 450 nm
# Experimental: as §1
# [1] = test system: binding of preS1/2-48^myr-FITC to PMH; experiment: Inhibition of preS1/2-48^myr-FITC binding to PMH; assay type: cell-based, mouse (C57BL/6); conditions: 0.5 μM preS1/2-48^myr-FITC, 100 μM peptide (200-fold molar excess), 4 h at 37 °C; confocal microscopy
# Experimental: PMH and HepG2 cells were seeded into 12-well plates at a density of 1 × 10^5 cells per well and cultured in WEM and DMEM without FBS respectively. […] Cell nuclei were stained with DAPI (4′6′-diamidino-2-phenylindole) (Sangon, Shanghai, China) for 10 minutes at room temperature. Cells were examined using a confocal microscope (Leica Biosystems, Germany).
# HBV attachment to PMH [2] = experiment: HBV attachment to PMH (real-time PCR); assay type: cell-based, Hepatitis B virus; conditions: 1 × 10^7 GE/well viruses pre-incubated 30 min at 37 °C, 4 h at 37 °C, triplicate, repeated at least three times
# Experimental: (§2) For HBV attachment assays, viruses in HepAD38 supernatants were precipitated in 10% polyethylene glycol (PEG) 8000 (Sangon) for 16 hours at 4 °C, centrifuged at 7,000 × g for 1 hour at 4 °C and resuspended in DMEM. Viral titers were determined using a real-time PCR kit (Qiagen, Düsseldorf, Germany) and represented as genome equivalent per milliliter (GE/ml). […] After incubation at 37 °C for 4 hours, cells were washed repeatedly with ice-cold PBS. Viral DNA was prepared from cell lysate with DNeasy Blood Kit (Qiagen) and quantified using real-time PCR with primers 5′-[…] -3′ and 5′-[…] -3′.
# HBV attachment to PMH [3] = experiment: HBV attachment to PMH (immunofluorescent staining of cell-bound HBsAg); assay type: cell-based, Hepatitis B virus; conditions: 1 μM; immunofluorescence
# Experimental: as §2
# (§3) PHH at 14 days post infection and PTH at 12 days post infection were washed 3 times with ice-cold PBS and fixed in 3.7% paraformaldehyde in PBS for 15 min at room temperature. Cells were washed, permeabilized with 0.5% Triton X-100 in PBS, washed again and incubated in 1% BSA in PBST for 30 minutes at room temperature. Cells were then stained with a polyclonal rabbit anti-HBcAg (1:700 dilution, Dako, Inc, Carpinteria, CA) overnight at 4 °C in a humidified chamber. After washing, PHH and PTH were incubated with Alexa Fluor 488 goat anti-rabbit IgG (H+L) and Alexa Fluor 546 goat anti-rabbit IgG (H+L) (1:1000 dilution, Life Technologies, USA) for 1 hour at room temperature in dark, respectively. After 3 washes in dark, cells were stained with DAPI for 10 minutes at room temperature. […]
# [4] = test system: HBV attachment to HepG2 cells; experiment: HBV attachment to HepG2 cells; assay type: cell-based, Hepatitis B virus; conditions: real-time PCR and immunofluorescent staining of HBsAg; viruses pre-incubated with 4B10 0.1 nM, 10 nM or 1 μM
# Experimental: as §2, §3
# HBV infection of PTH [5] = experiment: Intracellular HBcAg expression in HBV-infected PTH (immunofluorescence); assay type: cell-based, Hepatitis B virus; conditions: day 12 post-infection
# Experimental: (§4) All infections were repeated at least twice.
# (§5) PHH at 14 days post infection and PTH at 12 days post infection were washed 3 times with ice-cold PBS and fixed in 3.7% paraformaldehyde in PBS for 15 min at room temperature. Cells were washed, permeabilized with 0.5% Triton X-100 in PBS, washed again and incubated in 1% BSA in PBST for 30 minutes at room temperature. Cells were then stained with a polyclonal rabbit anti-HBcAg (1:700 dilution, Dako, Inc, Carpinteria, CA) overnight at 4 °C in a humidified chamber. After washing, PHH and PTH were incubated with Alexa Fluor 488 goat anti-rabbit IgG (H+L) and Alexa Fluor 546 goat anti-rabbit IgG (H+L) (1:1000 dilution, Life Technologies, USA) for 1 hour at room temperature in dark, respectively. After 3 washes in dark, cells were stained with DAPI for 10 minutes at room temperature. For detection of HBV attached to PMH and HepG2 cells, cells were stained with a mouse monoclonal anti-HBsAg (1:1000 dilution, Dako) followed by Alexa Fluor 488 goat anti-mouse IgG (H+L) (1:1000 dilution, Life Technologies). Cells were examined under a confocal microscope (Leica Biosystems).
# HBV infection of PHH [6] = experiment: Intracellular HBcAg expression in HBV-infected PHH (immunofluorescence); assay type: cell-based, Hepatitis B virus; conditions: day 14 post-infection
# Experimental: as §4, §5
# [7] = test system: VSV-G pseudotyped lentivirus; assay type: cell-based
# PMH = conditions: 4B10 0.01 μM, 1 μM and 100 μM, or LA-20; 72 h; CCK-8
# Experimental: (§6) To rule out potential cytotoxicity of the peptides, the viability of cells exposed to 4B10 (0.01 μM, 1 μM and 100 μM) or LA-20 for 72 hours was analyzed.
# (§7) For PTH, cells were cultured in medium containing 4B10 and LA-20 (0.01 μM, 1 μM or 100 μM) and viability measured using cell counting kit-8 (CCK-8) (Dojindo, Japan).
# HepG2 cells = conditions: 4B10 0.01 μM, 1 μM and 100 μM, or LA-20; 72 h; CCK-8
# Experimental: as §6, §7
# HBV infection of PTH [8] = test system: HBV infection of PTH
# Experimental: (§8) Freshly isolated PTH were seeded into collagen-coated 6-well plates (BD Biosciences, San Jose, CA) and maintained in Hepato-Stim Hepatocyte Defined medium (HDM) (BD Biosciences) at 5 × 10^5 cells per well. Twenty-four hours post-seeding, PTH were infected with concentrated viruses prepared from HepAD38 supernatants (genotype D) at a multiplicity of infection (MOI) of 100 GE per cell. […] After incubation at 37 °C overnight, cells were washed 5 times with PBS and cultivated for 12 days. For HBV infection of PHH, freshly prepared PHH were seeded into collagen-coated wells in supplemented WEM at 5 × 10^5 cells per well. […] PTH and PHH culture media were changed every two days, and hepatitis B surface antigen (HBsAg) and e antigen (HBeAg) in collected supernatants were determined using enzyme linked immunosorbent assay (ELISA) kits (Kehua). All infections were repeated at least twice.
# PHH = conditions: 0.05 nM to 500 μM; 24 h; CellTiter-Glo
# Experimental: PHH and PTH were seeded into collagen-coated 96-well plates at 5 × 10^4 cells per well.
# HIV-1 = conditions: TZM-bl cells; strains B12 and SH1.81, 200 TCID50; 4B10 up to 100 μM; luciferase, 48 h post infection
# Experimental: The infection of two strains of tat-expressing, replication deficient HIV-1, B12 and SH1.81, was tested on TZM-bl cells harboring HIV-1 LTR-luciferase reporter[30]. Envelope proteins of B12 and SH1.81 were derived from HIV-1 B and A/E recombinant subtype, respectively. […] Forty-eight hours post infection, intracellular luciferase activity was measured with a luciferase assay kit (Promega, Madison, WI).
# HBV infection of PHH [9] = experiment: HBV infection of primary human hepatocytes; conditions: for IC50: pooled patient sera (genotypes B and C), MOI 400, day 14 post infection, ELISA, printed with 'about'
# Experimental: as §8
# [10] = test system: primary mouse hepatocytes (PMH); experiment: Flow cytometry binding of FITC-labelled peptides to PMH; conditions: discussion; Fig. 3A
# [11] = PTH, 4B10 0.01-100 nM or LA-20 100 nM, ELISA
sequence,measurement,setting,value
LRNIRLRNIRLRNIRLRNIR [4B10],preS1-binding activity (preS1/2-48^myr-FITC),preS1/2-48^myr,showed the highest binding activity
same,HBV-binding activity,HBV particles,showed the highest binding activity
same,inhibition of binding of preS1/2-48^myr-FITC to PMH,[1],completely blocked
same,reduction of PMH-associated virions,HBV attachment to PMH [2]; 0.1 nM,39%
same,reduction of PMH-associated virions,HBV attachment to PMH [2]; 10 nM,56%
same,reduction of PMH-associated virions,HBV attachment to PMH [2]; 1 μM,74%
same,HBV attachment to PMH (HBsAg staining),HBV attachment to PMH [3],markedly reduced
same,HBV attachment to HepG2 cells,[4],inhibited HBV attachment to HepG2 cells
same,post-infection HBcAg expression,HBV infection of PTH [5],dose-dependent decrease in post-infection HBcAg expression
same,post-infection HBcAg expression,HBV infection of PHH [6],dose-dependent decrease in post-infection HBcAg expression
same,inhibitory effect on infection of VSV-G pseudotyped lentivirus,[7],no inhibitory effect
same,cytotoxic effect on PMH,PMH,No notable cytotoxic effect
same,cytotoxic effect on HepG2 cells,HepG2 cells,No notable cytotoxic effect
same,inhibition of HBV infection of primary tupaia hepatocytes,HBV infection of PTH [8],low nanomolar concentrations
same,effect on post-infection HBeAg expression,HBV infection of PTH [8]; [11],dose-dependent decrease
same,effect on post-infection HBsAg expression,HBV infection of PTH [8]; [11],dose-dependent decrease
same,IC50,HBV infection of PTH [8]; infection of PTH,0.1 to 1 nM
same,inhibition of infection by genotype D viruses,HBV infection of PTH [8]; viruses derived from HepAD38 cells,could inhibit the infection of genotype B and C viruses from HBV-infected patients as well as genotype D viruses
same,cytotoxic effect on PHH,PHH,No cytotoxicity was observed
same,inhibitory effect on infection of HIV-1,HIV-1,no inhibitory effect
same,inhibition of HBV infection (in words),"HBV infection of PHH [9]; PHH, 4B10 0.05-500 nM",Dose-dependent and efficient inhibition of HBV infection
same,inhibition of HBV infection of primary human hepatocytes,HBV infection of PHH [9]; abstract,low nanomolar concentrations
same,IC50,"HBV infection of PHH [9]; read-out: IC50 based on HBeAg measurement, PHH",0.5 to 5 nM
same,IC50,"HBV infection of PHH [9]; read-out: IC50 based on HBsAg measurement, PHH",0.05 to 0.5 nM
same,inhibition of infection by genotype B and C viruses,HBV infection of PHH [9]; viruses from HBV-infected patients,could inhibit the infection of genotype B and C viruses
same,binding to primary hepatocytes,[10],does not bind
